Results published in ChEMBL document CHEMBL2303647, “Data associated with the publication PLoS ONE, 8(3), e57888, (2013) PMID: 23505445. Compounds: GSK PKIS; Assays: NIH NCATS”.

How the values were obtained:
[1] = biological target: T1, Coelenterazine h 2-monooxygenase (Renilla reniformis, UniProt P27652)
T1 sequence (P27652 whole entry): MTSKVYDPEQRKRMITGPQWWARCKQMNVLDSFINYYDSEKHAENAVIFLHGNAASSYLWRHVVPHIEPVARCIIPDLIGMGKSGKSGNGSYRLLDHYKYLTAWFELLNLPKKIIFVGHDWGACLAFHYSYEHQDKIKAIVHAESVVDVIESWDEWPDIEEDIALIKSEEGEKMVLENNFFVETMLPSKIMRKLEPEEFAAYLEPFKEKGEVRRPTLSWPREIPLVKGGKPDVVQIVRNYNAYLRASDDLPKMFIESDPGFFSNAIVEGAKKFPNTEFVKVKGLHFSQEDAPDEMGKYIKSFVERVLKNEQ
Description: GSK_PKIS: Inhibition of Sea Pansy Luciferase (Data from PubChem: AID 652015) [NIH NCATS]

[2] = biological target: Luciferin 4-monooxygenase (Photinus pyralis, UniProt P08659)
Chain of Luciferin 4-monooxygenase (P08659 whole entry): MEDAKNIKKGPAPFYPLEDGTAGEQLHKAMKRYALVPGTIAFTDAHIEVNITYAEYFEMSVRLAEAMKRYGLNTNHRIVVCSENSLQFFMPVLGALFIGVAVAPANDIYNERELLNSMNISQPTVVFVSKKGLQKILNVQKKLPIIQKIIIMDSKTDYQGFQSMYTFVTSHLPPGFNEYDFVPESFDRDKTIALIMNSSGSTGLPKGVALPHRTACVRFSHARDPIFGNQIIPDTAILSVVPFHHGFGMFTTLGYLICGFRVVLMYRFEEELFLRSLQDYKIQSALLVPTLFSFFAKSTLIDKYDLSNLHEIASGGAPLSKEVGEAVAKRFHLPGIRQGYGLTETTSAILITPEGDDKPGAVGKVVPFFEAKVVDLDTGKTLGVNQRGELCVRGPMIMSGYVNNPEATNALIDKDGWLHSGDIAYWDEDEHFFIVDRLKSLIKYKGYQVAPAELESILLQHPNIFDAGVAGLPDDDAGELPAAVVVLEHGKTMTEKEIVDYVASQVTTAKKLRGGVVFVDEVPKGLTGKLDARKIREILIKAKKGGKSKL
Description: GSK_PKIS: Inhibition of Firefly Luciferase (Data from PubChem: AID 652016) [NIH NCATS]

AC50 ([2]; read-out: AC50) [µM] | AC50 ([1]; read-out: AC50) [µM] | SMILES | AC50 [1] | AC50 [2]
 |  | Nc1nc(-c2ccc(F)cc2)c(-c2ccc3ncccc3n2)s1 [GW785804X] | Phenotype: Inactive; Curve_Description: None | Phenotype: Inactive; Curve_Description: None
 |  | CS(=O)(=O)CCNCc1nc(-c2ccc3ncnc(Nc4ccc(F)c(Cl)c4)c3c2)cs1.Cl [GW461104A] | Phenotype: Inactive; Curve_Description: None | Phenotype: Inactive; Curve_Description: None
5.8 |  | COc1cccc(-c2c[nH]c3c(N/N=C/c4ccncc4)ncnc23)c1 [GW814408X] | Phenotype: Inactive; Curve_Description: None | 
0.73 |  | Cl.NC(=O)c1cccc(Nc2nccc(Nc3cccc(F)c3)n2)c1 [GW759710A] | Phenotype: Inactive; Curve_Description: None | 
 |  | Fc1ccc(-c2cc(-c3c[nH]nc3-c3ccccn3)ccn2)cc1 [GW680975X] | Phenotype: Inactive; Curve_Description: None | Phenotype: Inactive; Curve_Description: None
2.91 |  | c1cnn2ncc(-c3ccnc(Nc4ccc5c(c4)OCCO5)n3)c2c1 [GW806290X] | Phenotype: Inactive; Curve_Description: None | 
 | 41.1 | NCc1ccc(-n2c(-c3nonc3N)nc3cnccc32)cc1 |  | Phenotype: Inactive; Curve_Description: None
 | 0.0007 | COc1ccc2ncnc(Nc3ccc(OCc4ccccc4)cc3)c2c1.Cl |  | Phenotype: Inactive; Curve_Description: None
 |  | CC1=C(C(=O)Nc2ccc3[nH]ncc3c2)C(c2ccc(Cl)c(Cl)c2)CC(=O)N1 (configuration not stated) [GSK-299115A] | Phenotype: Inactive; Curve_Description: None | Phenotype: Inactive; Curve_Description: None
 |  | O=C1NC(=O)C(c2ccccc2Cl)=C1Nc1cccc(O)c1 | Phenotype: Inactive; Curve_Description: None | Phenotype: Inactive; Curve_Description: None
 |  | COc1cc(Nc2ncc(-c3ccccc3)o2)cc(OC)c1OC [GW627512B] | Phenotype: Inactive; Curve_Description: None | Phenotype: Inactive; Curve_Description: None
32.6 |  | CN(C)C(=O)O[C@@H]1CN[C@@H](C#Cc2cc3ncnc(Nc4ccc(OCc5cccc(F)c5)c(Cl)c4)c3s2)C1 [GSK-238063A] | Phenotype: Inactive; Curve_Description: None | 
 | 0.0006 | COC(=O)Nc1nc2ccc(Sc3ccc(NC(=O)Nc4cc(C(F)(F)F)ccc4F)cc3)cc2[nH]1.O=S(=O)(O)O [GW607049C] |  | Phenotype: Inactive; Curve_Description: None
 |  | Cc1ccc2c(-c3ccnc(Nc4ccc5c(c4)OCCO5)n3)c(-c3ccc(C(F)(F)F)cc3)nn2n1 [GW832467X] | Phenotype: Inactive; Curve_Description: None | Phenotype: Inactive; Curve_Description: None
29.1 | 23.1 | NS(=O)(=O)c1ccc(N/N=C2\C(=O)Nc3ccc4ncccc4c32)cc1 [GW305178X] |  | 
 |  | COc1cc(Nc2ncc3c(C)nc(-c4cccc(Oc5ccccc5)c4)n3n2)cc(OC)c1OC [GW861893X] | Phenotype: Inactive; Curve_Description: None | Phenotype: Inactive; Curve_Description: None
1.03 |  | Cl.N#Cc1cccc(Nc2ncc(-c3ccccc3)o2)c1 [GW627834A] | Phenotype: Inactive; Curve_Description: None | 
 |  | CCNC(=O)O[C@H]1CN[C@H](C#Cc2cc3ncnc(Nc4ccc(OCc5cccc(F)c5)c(Cl)c4)c3s2)C1 [GSK-192082A] | Phenotype: Inactive; Curve_Description: None | Phenotype: Inactive; Curve_Description: None
 |  | Nc1nccc(-c2c(-c3ccc(F)cc3)nn3cc(C(F)(F)F)ccc23)n1 [GW568326X] | Phenotype: Inactive; Curve_Description: None | Phenotype: Inactive; Curve_Description: None
 |  | Cl.O=C(Nc1ccc(Oc2ccc3[nH]c(NC(=O)c4ccccc4)nc3c2)cc1)Nc1cc(C(F)(F)F)ccc1F [GW709042A] | Phenotype: Inactive; Curve_Description: None | Phenotype: Inactive; Curve_Description: None
 |  | CCS(=O)(=O)c1ccc(OC)c(Nc2ncc(-c3cccc(F)c3)o2)c1 [GW621970X] | Phenotype: Inactive; Curve_Description: None | Phenotype: Inactive; Curve_Description: None
6.51 |  | COc1cc(Nc2ncc(-c3ccccc3)o2)cc(OC)c1 [GW631581B] | Phenotype: Inactive; Curve_Description: None | 
 |  | O=C1NC(=O)C(c2ccc(Cl)cc2)=C1Nc1ccc(Cl)c(C(=O)O)c1 | Phenotype: Inactive; Curve_Description: None | Phenotype: Inactive; Curve_Description: None

AC50 ([2]; read-out: AC50) [µM] | AC50 ([1]; read-out: AC50) [µM] | SMILES | AC50 [1] | AC50 [2]
 |  | CS(=O)(=O)Nc1ccc(-c2cc(-c3ccccc3)cc(C(N)=O)c2N)cc1 [GSK-586581A] | Phenotype: Inactive; Curve_Description: None | Phenotype: Inactive; Curve_Description: None
32.6 | 0.0005 | COc1cccc(-n2ncc3c(N/N=C/c4ccc(F)cc4)ncnc32)c1 [GW817396X] |  | 
20.6 |  | Cc1cc(-c2ccco2)cc(C)c1/C=C/c1cncc(-c2nn[nH]n2)c1.Cl [GW458344A] | Phenotype: Inactive; Curve_Description: None | 
29.1 |  | COc1cc(C=NNc2ncnc3c2cnn3Cc2ccccc2)ccc1O [GW643971X] | Phenotype: Activator; Curve_Description: None | 
18.3 |  | CCC(=O)Nc1ccc(C)c(-c2ccc(C(=O)NCC3CC3)cc2)c1 [GW796921X] | Phenotype: Inactive; Curve_Description: None | 
 |  | CNC(=O)c1cccc(C#Cc2cncnc2Nc2ccc(OCc3cccc(F)c3)c(Cl)c2)c1 [GW772405X] | Phenotype: Inactive; Curve_Description: None | Phenotype: Inactive; Curve_Description: None
41.1 |  | CC1(C)CC(n2cnc(-c3ccc(F)cc3)c2-c2ccnc(N)n2)CC(C)(C)N1 | Phenotype: Inactive; Curve_Description: None | 
 |  | NC(=O)Cc1ccccc1Oc1nccc(-c2c(-c3ccc(F)cc3)ncn2C2CCNCC2)n1 | Phenotype: Inactive; Curve_Description: None | Phenotype: Inactive; Curve_Description: None
 |  | COc1cc2c(cc1Nc1nc(Nc3ccsc3C(N)=O)c3cc[nH]c3n1)N(C(=O)CN(C)C)CCC2(C)C [GSK-2163632A] | Phenotype: Inactive; Curve_Description: None | Phenotype: Inactive; Curve_Description: None
41.1 |  | Cc1ccc(O)cc1Nc1ccnc2ccc(S(C)(=O)=O)cc12 [GW559768X] | Phenotype: Inactive; Curve_Description: None | 
 |  | COc1cc2ncn(-c3cc(OCCc4ccccc4)c(C(N)=O)s3)c2cc1OC [GSK-204925A] | Phenotype: Inactive; Curve_Description: None | Phenotype: Inactive; Curve_Description: None
 |  | Cl.Fc1ccc(-c2nc3n(c2-c2ccncc2)CCS3)cc1 | Phenotype: Inactive; Curve_Description: None | Phenotype: Inactive; Curve_Description: None
 |  | CCN(CC)S(=O)(=O)c1ccc(OC)c(Nc2ncc(-c3ccccc3)o2)c1 [GW572401X] | Phenotype: Inactive; Curve_Description: None | Phenotype: Inactive; Curve_Description: None
4.11 |  | O=C1Nc2ccccc2/C1=C/Nc1ccc2[nH]c(=O)[nH]c2c1 [GW284408X] | Phenotype: Inactive; Curve_Description: None | 
18.3 |  | N#Cc1c(NC(=O)c2cccc3ccccc23)sc2c1CCCC2 [GW620972X] | Phenotype: Inactive; Curve_Description: None | 
20.6 |  | COC(=O)Nc1nc2ccc(Oc3ccc(NC(=O)Nc4cccc(Cl)c4)cc3)cc2[nH]1.Cl [GW589961A] | Phenotype: Inactive; Curve_Description: None | 
36.6 |  | COc1ccc2cc(-c3c(-c4ccncc4)nc(-c4ccc([S+](C)[O-])cc4)n3C)ccc2c1 (configuration not stated) | Phenotype: Inactive; Curve_Description: None | 
 |  | COc1ccc(-c2ccncc2)cc1C(N)=O [GSK-605714A] | Phenotype: Inactive; Curve_Description: None | Phenotype: Inactive; Curve_Description: None
 |  | COc1ccc2c(-c3ccnc(Nc4cccc(OC(F)(F)F)c4)n3)cnn2n1 [GW810372X] | Phenotype: Activator; Curve_Description: None | Phenotype: Inactive; Curve_Description: None
0.919 |  | N#Cc1c(NC(=O)c2ccc(F)cc2)sc2c1CCCC2 | Phenotype: Inactive; Curve_Description: None | 
41.1 |  | CC1=C(C(=O)Nc2ccc3[nH]ncc3c2)C(c2ccc3ccccc3c2)CC(=O)N1 (configuration not stated) [GSK-270822A] | Phenotype: Inactive; Curve_Description: None | 
20.6 |  | Nc1ccc(C#Cc2cncnc2Nc2ccc(OCc3cccc(F)c3)c(Cl)c2)cc1 [GW659893X] | Phenotype: Inactive; Curve_Description: None | 
 |  | Cc1nnc(-c2ccc(C)c(-c3ccc(C(=O)NCc4ccc(Cl)cc4)cc3)c2)o1 [GW708893X] | Phenotype: Inactive; Curve_Description: None | Phenotype: Inactive; Curve_Description: None

SMILES | AC50 ([2]; read-out: AC50) [µM] | AC50 ([1]; read-out: AC50) [µM] | AC50 [1] | AC50 [2]
Nc1ncnc2occ(-c3ccc(NC(=O)Nc4cc(C(F)(F)F)cc(C(F)(F)F)c4)cc3)c12 [GW795486X] |  | 16.3 |  | Phenotype: Inactive; Curve_Description: None
NS(=O)(=O)c1ccc(N/N=C2\C(=O)Nc3ccc(C(=O)NCCCn4ccnc4)cc32)cc1 [GW290597X] |  | 18.3 |  | Phenotype: Inactive; Curve_Description: None
CCN1CCC(CC(=O)Nc2n[nH]c3nnc(-c4cccc(F)c4F)cc23)CC1.O=C(O)C(O)C(O)C(=O)O | 41.1 |  | Phenotype: Inactive; Curve_Description: None | 
CN(C)c1ccc2c(c1)/C(=C/Nc1ccc(S(N)(=O)=O)cc1)C(=O)N2 [GW416469X] |  | 5.8 |  | Phenotype: Inactive; Curve_Description: None
Cl.Oc1cccc(-c2nc(-c3ccccc3)[nH]c2-c2ccncc2)c1 |  | 23.1 |  | Phenotype: Inactive; Curve_Description: None
